Legend:
Type in all cases: in vivo
Wistar rat [1] = experiment: Social recognition in the Wistar rat; settings: second encounter after 2 hours
Description: Initially described in 1982 (J. Comp. Physiol., 1982, 96, 1000-1006), the social recognition test has subsequently been proposed by various authors (Psychopharmacology, 1987, 91, 363-368; Psychopharmacology, 1989, 97, 262-268) for studying the mnemocognitive effects of new compounds. The test is based on the natural expression of the olfactory memory of the rat and its natural tendency to forget and allows evaluation of memorisation, by recognition of a young congeneric animal, by an adult rat. A young rat (21 days), taken at random, is placed for 5 minutes in the cage housing an adult rat. With the aid of a video device, the experimenter observes the social recognition behaviour of the adult rat and measures its overall duration. The young rat is then removed from the adult rat's cage and is placed in its own cage until the second introduction. The adult rat is given the compound under test by the intraperitoneal route and, after 2 hours, is again brought into the presence (5 minutes) of the young rat. The social recognition behaviour is then observed again and its duration measured. The assessment criterion is the difference (T2−T1), expressed in seconds, between the “recognition” times of the 2 encounters.

awake Wistar rat = experiment: Electroencephalogram recordings in the awake Wistar rat; settings: 3 mg/kg IP, cortical EEG
Protocol: Electrodes are chronically implanted in adult male Wistar rats, being located at the surface of the frontal and parietal cortex. Cortical electroencephalogram (EEG) recordings are made in the rats placed in cages in a sound-proofed room. The compounds and carriers are administered in randomised manner by the intraperitoneal route at 10 o'clock on the same days with a minimum of 3 days between each administration, allowing each rat to be used as its own control. The absolute power of the slow delta activities (1-4 Hz), which predominate during slow sleep and disappear during wakefulness and paradoxical sleep, is averaged over successive periods of 30 minutes. Over 30 minutes, high and low values for the power of the slow delta activities are signs of […], respectively.

NMRI mouse = experiment: Tail suspension test in the NMRI mouse; settings: 10 mg/kg IP, 24 hours and 30 minutes before suspension, 6 minutes
Protocol: The tail suspension test in the mouse (Porsolt et al., Arch. Int. Pharmacodyn., 1987, 288, 11) enables detection of psychopharmacological properties of compounds. NMRI mice are suspended by the tail, with the aid of a piece of adhesive tape, from a hook for 6 minutes: the immobility time is measured automatically with the aid of movement sensors. The animals are treated, by the intraperitoneal route, with the compounds of the invention or their carriers 24 hours and 30 minutes before they are suspended.

Sprague-Dawley rat = experiment: Object recognition in the Sprague-Dawley rat; settings: 3 mg/kg PO 60 minutes before each session, second session 24 hours later
Description: The object recognition test in the Sprague-Dawley rat (Behav. Brain Res., 1988, 31, 47-59) is based on the spontaneous exploratory activity of the animal and has the characteristics of episodic memory in humans. This memory test is sensitive to ageing (Eur. J. Pharmacol., 1997, 325, 173-180) and to cholinergic dysfunctions (Pharm. Biochem. Behav. 1996, 53(2), 277-283) and is based on the differences in the exploration of 2 objects of fairly similar shape—one familiar, the other new. Prior to the test, the animals are habituated to the environment (an enclosure without an object). In the course of a first session, the rats are placed (3 minutes) in the enclosure, in which there are 2 identical objects. The duration of exploration is measured for each object. In the course of the second session (3 minutes), 24 hours later, 1 of the 2 objects is replaced by a new object. The duration of exploration is measured for each object. The assessment criterion is the difference, Delta, expressed in seconds, between the exploration times for the new object and for the familiar object in the course of the second session.

[2] = tested on: extracellular levels of dopamine; experiment: Intracerebral microdialysis in the striatum of the awake rat; settings: 10 mg/kg i.p., striatum microdialysate, awake Wistar rat
Protocol: Intracerebral microdialysis in the awake rat makes it possible to assess the influence of a compound on the release of neurotransmitters such as dopamine into the extracellular space of small cerebral structures, especially the striatum.
This technique is carried out in two steps: a surgery step (stereotaxic implantation of a cannula-guide carried out on the anaesthetised animal) and a microdialysis step carried out on the awake animal (collection of samples of extracellular cerebral liquid). Male rats of the Wistar strain (280-320 g) are anaesthetised and placed in a stereotaxic apparatus. A guide cannula is implanted in the striatum of the animals according to the following stereotaxic coordinates: antero-posteriority −1 mm, laterality +2.8 mm, depth −3 mm, relative to the bregma, according to the atlas of Paxinos and Watson (1996). One week after the surgery, a microdialysis probe (CMA11, length 4 mm, Phymep) is inserted into the guide cannula. The animals are placed in experimentation cages and the to probe inlet is connected to a pump continuously perfusing artificial cerebrospinal fluid (flow rate 1 μl/min). […] The extracellular levels of dopamine are assessed in each microdialysate using a liquid chromatographic technique coupled with electrochemical detection. The values are expressed as the mean±SEM relative to the baseline values (reference 100%).

Wistar rat [3] = experiment: Interaction with barbital in the Wistar rat; settings: 10 mg/kg PO 30 minutes before barbital 170 mg/kg IP, sleep measured for 4 hours
Protocol: The objective of this test is to determine the anti-sedative, awakening and/or anti-hypnotic properties of the compounds of the present invention. The rats are placed in individual cages and are given an injection of barbital (170 mg/kg IP). The duration of sleep is then measured for 4 hours after the injection of barbital, determined on the basis of loss of the righting reflex. The compounds of the invention or their carriers are administered by the oral route 30 minutes before the administration of barbital.

Cl.NC(=O)c1ccc(OCCCN2C[C@H]3CC[C@H]3C2)cc1 [Example 1, 4-{3-[(1R,5S)-3-Azabicyclo[3.2.0]hept-3-yl]-propoxy}benzamide hydrochloride]
difference (T2−T1) between recognition times (Wistar rat [1]; 1 mg/kg IP): 24 s
difference (T2−T1) between recognition times (Wistar rat [1]; 3 mg/kg IP): 36 s
duration of reduction in power of the slow delta waves (awake Wistar rat): 120 min
effect on power of the slow delta waves (1-4 Hz) (awake Wistar rat): significant reduction
increase in the immobility time (NMRI mouse): 119%
difference, Delta, between exploration times for the new and the familiar object (Sprague-Dawley rat): ~8 s
increase in endogenous cerebral concentrations of dopamine (in comparison with basal values) [2]: +123%
reduction of the duration of sleeping caused by barbital (Wistar rat [3]): −81%
